± gives the expanded uncertainty stated by the source.
Settings: Liquid, Frequency=8 MHz, Pulse-echo method

CCCCO [butan-1-ol]
Settings	speed of sound [m/s]
253.15 K, 108 kPa	1399.2 ± 0.73
253.15 K, 5065 kPa	1423.1 ± 0.74
253.15 K, 10086 kPa	1446.2 ± 0.74
253.15 K, 15035 kPa	1468.3 ± 0.75
253.15 K, 20115 kPa	1490.2 ± 0.76
253.15 K, 25062 kPa	1510.8 ± 0.77
253.15 K, 30526 kPa	1532.7 ± 0.78
273.15 K, 103 kPa	1326.1 ± 0.7
273.15 K, 5008 kPa	1351.9 ± 0.71
273.15 K, 10094 kPa	1377.2 ± 0.72
273.15 K, 15185 kPa	1401.4 ± 0.73
273.15 K, 20115 kPa	1424.1 ± 0.74
273.15 K, 25088 kPa	1446.1 ± 0.74
273.15 K, 30170 kPa	1467.9 ± 0.75
293.15 K, 104 kPa	1256.4 ± 0.67
293.15 K, 5067 kPa	1284.6 ± 0.69
293.15 K, 10144 kPa	1311.7 ± 0.69
293.15 K, 15081 kPa	1336.9 ± 0.7
293.15 K, 20094 kPa	1361.5 ± 0.71
293.15 K, 25087 kPa	1385 ± 0.72
293.15 K, 30176 kPa	1408.1 ± 0.73
313.15 K, 100 kPa	1189.2 ± 0.65
313.15 K, 5050 kPa	1219.2 ± 0.66
313.15 K, 10082 kPa	1248.2 ± 0.67
313.15 K, 15167 kPa	1276 ± 0.68
313.15 K, 20187 kPa	1302.2 ± 0.69
313.15 K, 25473 kPa	1328.5 ± 0.7
313.15 K, 30162 kPa	1351 ± 0.71
333.15 K, 99 kPa	1122.9 ± 0.62
333.15 K, 5055 kPa	1155.5 ± 0.64
333.15 K, 10099 kPa	1186.8 ± 0.65
333.15 K, 15058 kPa	1215.8 ± 0.66
333.15 K, 20149 kPa	1244.2 ± 0.67
333.15 K, 25167 kPa	1270.8 ± 0.68
333.15 K, 30276 kPa	1296.8 ± 0.69
353.15 K, 100 kPa	1056.4 ± 0.6
353.15 K, 5013 kPa	1091.6 ± 0.61
353.15 K, 10032 kPa	1125.3 ± 0.63
353.15 K, 15066 kPa	1157.1 ± 0.64
353.15 K, 20085 kPa	1187 ± 0.65
353.15 K, 25075 kPa	1215.1 ± 0.66
353.15 K, 30204 kPa	1242.7 ± 0.67

CCO [ethanol]
Settings	speed of sound [m/s]
253.15 K, 101 kPa	1304.8 ± 0.73
253.15 K, 4988 kPa	1329.9 ± 0.74
253.15 K, 10126 kPa	1355.1 ± 0.75
253.15 K, 15056 kPa	1378.4 ± 0.76
253.15 K, 19988 kPa	1400.8 ± 0.77
253.15 K, 25051 kPa	1423 ± 0.78
253.15 K, 30366 kPa	1445.5 ± 0.79
273.15 K, 101 kPa	1230.4 ± 0.69
273.15 K, 5095 kPa	1258.5 ± 0.71
273.15 K, 10288 kPa	1286.1 ± 0.72
273.15 K, 15102 kPa	1310.6 ± 0.73
273.15 K, 19986 kPa	1334.4 ± 0.74
273.15 K, 25007 kPa	1357.9 ± 0.75
273.15 K, 30061 kPa	1380.6 ± 0.76
293.15 K, 101 kPa	1159.8 ± 0.66
293.15 K, 5052 kPa	1190 ± 0.68
293.15 K, 9984 kPa	1218.5 ± 0.69
293.15 K, 15097 kPa	1246.4 ± 0.7
293.15 K, 20038 kPa	1272.2 ± 0.71
293.15 K, 25073 kPa	1297.3 ± 0.72
293.15 K, 30034 kPa	1321 ± 0.73
313.15 K, 101 kPa	1091.6 ± 0.63
313.15 K, 5015 kPa	1124.4 ± 0.65
313.15 K, 10081 kPa	1156 ± 0.66
313.15 K, 15057 kPa	1185.3 ± 0.67
313.15 K, 20137 kPa	1213.6 ± 0.69
313.15 K, 25255 kPa	1240.7 ± 0.7
313.15 K, 30161 kPa	1265.5 ± 0.71
333.15 K, 101 kPa	1024.9 ± 0.6
333.15 K, 5287 kPa	1062.5 ± 0.62
333.15 K, 10309 kPa	1096.4 ± 0.63
333.15 K, 15132 kPa	1126.9 ± 0.65
333.15 K, 20140 kPa	1156.7 ± 0.66
333.15 K, 25071 kPa	1184.6 ± 0.67
333.15 K, 30117 kPa	1211.7 ± 0.69
353.15 K, 110 kPa	957.67 ± 0.57
353.15 K, 5428 kPa	1000.1 ± 0.59
353.15 K, 10327 kPa	1036.1 ± 0.61
353.15 K, 15492 kPa	1071.3 ± 0.62
353.15 K, 20337 kPa	1102.3 ± 0.64
353.15 K, 25296 kPa	1132.1 ± 0.65
353.15 K, 29944 kPa	1158.6 ± 0.66

CO [methanol]
Settings	speed of sound [m/s]
253.15 K, 101 kPa	1259.4 ± 0.68
253.15 K, 5031 kPa	1283.6 ± 0.69
253.15 K, 10064 kPa	1307.3 ± 0.7
253.15 K, 15070 kPa	1329.9 ± 0.71
253.15 K, 20048 kPa	1351.5 ± 0.72
253.15 K, 25130 kPa	1372.8 ± 0.73
253.15 K, 30260 kPa	1393.5 ± 0.74
273.15 K, 101 kPa	1187.3 ± 0.65
273.15 K, 5017 kPa	1213.8 ± 0.66
273.15 K, 10158 kPa	1240 ± 0.67
273.15 K, 15070 kPa	1264 ± 0.68
273.15 K, 20132 kPa	1287.6 ± 0.69
273.15 K, 25155 kPa	1310.1 ± 0.7
273.15 K, 30074 kPa	1331.4 ± 0.71
293.15 K, 101 kPa	1119.1 ± 0.62
293.15 K, 5028 kPa	1147.8 ± 0.63
293.15 K, 10032 kPa	1175.5 ± 0.65
293.15 K, 15145 kPa	1202.4 ± 0.66
293.15 K, 20159 kPa	1227.6 ± 0.67
293.15 K, 25062 kPa	1251.1 ± 0.68
293.15 K, 30276 kPa	1275.1 ± 0.69
313.15 K, 101 kPa	1053.2 ± 0.59
313.15 K, 5046 kPa	1084.8 ± 0.61
313.15 K, 10127 kPa	1115.4 ± 0.62
313.15 K, 15085 kPa	1143.5 ± 0.63
313.15 K, 19989 kPa	1170 ± 0.64
313.15 K, 25090 kPa	1196.1 ± 0.65
313.15 K, 30009 kPa	1220.1 ± 0.66
333.15 K, 101 kPa	988.92 ± 0.57
333.15 K, 5029 kPa	1023.7 ± 0.58
333.15 K, 10110 kPa	1056.9 ± 0.59
333.15 K, 15215 kPa	1088.2 ± 0.61
333.15 K, 20093 kPa	1116.3 ± 0.62
333.15 K, 25061 kPa	1143.5 ± 0.63
333.15 K, 30122 kPa	1169.9 ± 0.64
353.15 K, 197 kPa	925.58 ± 0.54
353.15 K, 5097 kPa	963.76 ± 0.56
353.15 K, 10106 kPa	999.62 ± 0.57
353.15 K, 15143 kPa	1033 ± 0.58
353.15 K, 20216 kPa	1064.5 ± 0.6
353.15 K, 25221 kPa	1093.7 ± 0.61
353.15 K, 30092 kPa	1120.6 ± 0.62

CCCO [propan-1-ol]
Settings	speed of sound [m/s]
253.15 K, 102 kPa	1368 ± 0.69
253.15 K, 5133 kPa	1393 ± 0.7
253.15 K, 10109 kPa	1416.6 ± 0.71
253.15 K, 15198 kPa	1439.9 ± 0.72
253.15 K, 20092 kPa	1461.4 ± 0.73
253.15 K, 25341 kPa	1483.7 ± 0.74
253.15 K, 30423 kPa	1504.6 ± 0.75
273.15 K, 101 kPa	1293.5 ± 0.67
273.15 K, 5181 kPa	1320.8 ± 0.68
273.15 K, 10163 kPa	1346.3 ± 0.69
273.15 K, 15287 kPa	1371.4 ± 0.7
273.15 K, 20261 kPa	1394.8 ± 0.7
273.15 K, 25076 kPa	1416.6 ± 0.71
273.15 K, 30164 kPa	1438.9 ± 0.72
293.15 K, 105 kPa	1222.5 ± 0.64
293.15 K, 5042 kPa	1251.2 ± 0.65
293.15 K, 10141 kPa	1279.3 ± 0.66
293.15 K, 15272 kPa	1306.3 ± 0.67
293.15 K, 20136 kPa	1330.7 ± 0.68
293.15 K, 25068 kPa	1354.6 ± 0.69
293.15 K, 30231 kPa	1378.5 ± 0.7
313.01 K, 30237 kPa	1321.2 ± 0.68
313.15 K, 108 kPa	1154.1 ± 0.61
313.15 K, 5139 kPa	1185.8 ± 0.62
313.15 K, 10136 kPa	1215.4 ± 0.64
313.15 K, 15128 kPa	1243.6 ± 0.65
313.15 K, 20151 kPa	1270.6 ± 0.66
313.15 K, 25136 kPa	1296.1 ± 0.67
333.15 K, 101 kPa	1086.8 ± 0.59
333.15 K, 5018 kPa	1120.5 ± 0.6
333.15 K, 10050 kPa	1152.8 ± 0.61
333.15 K, 15186 kPa	1183.9 ± 0.62
333.15 K, 20183 kPa	1212.5 ± 0.64
333.15 K, 25121 kPa	1239.5 ± 0.65
333.15 K, 30028 kPa	1265 ± 0.66
353.15 K, 104 kPa	1018.9 ± 0.56
353.15 K, 5034 kPa	1056 ± 0.58
353.15 K, 10009 kPa	1090.8 ± 0.59
353.15 K, 15132 kPa	1124.2 ± 0.6
353.15 K, 20099 kPa	1154.8 ± 0.61
353.15 K, 25054 kPa	1183.6 ± 0.62
353.15 K, 30493 kPa	1213.6 ± 0.64

From the NIST ThermoML archive (doi:10.1016/j.jct.2015.10.006)
